In the series the test system is bovine cornea. The experiment in a line: Bovine cornea opacity and permeability (BCOP) ocular irritation assay. Conditions: mean data, Conc. neat, exposure time 10 minutes. Here is the method: Products including one or more ingredients which are corrosive in nature and present in a product at a level which normally cause ocular irritation are modified to have reduced ocular irritation without replacing the corrosive ingredient(s) and without reducing the amount of the corrosive ingredient(s) used in a product. The level of corrosiveness or the hazards of a product is determined under EPA regulations. EPA toxicity testing is based on determining the level of ocular irritation caused by a product. This EPA standard is used herein to evidence the reduced corrosive nature of products of the invention. The test used is the bovine cornea opacity and permeability (BCOP) method which is an Organization for Economic Co-operation and Development (OECD) validated method for assessing ocular irritation and has recently been accepted by the EPA as an alternative to the traditional Draize animal test. The BCOP test method is described in the “OECD Guidelines For The Testing Of Chemicals”, No. 437, adopted Jul. 26, 2013 and entitled “Bovine Corneal Opacity and Permeability Test Method for Identifying i) Chemicals Inducing Serious Eye Damage and ii) Chemicals Not Requiring Classification for Eye Irritation or Serious Eye Damage”. […]
Step 3—Initial Opacity. The cMEM is removed and refilled and the initial opacity is read on an opacitometer. […]
Step 5—Rinsing. Corneas are rinsed thoroughly to remove the test substance and incubated for two (2) hours before a final opacity reading. […]
Formulas of the same ingredients as in Example 4 were also tested with lower or higher amounts of CARBOPOL® EZ-2 with respective adjustments in the water concentration. […] The viscosities of the 0.25% solution was ˜4 cps, of the 0.55% solution ˜10 cps, of the 0.75% solution ˜200 cps, of the 1.0% solution (shown above) ˜8,000 cps, (each of the former being measured by Brookfield LVT, spindle 1, speed 30 rpm) and of the 1.25% solution ˜18,700 cps (being measured by Brookfield LVT, spindle 4, speed 30 rpm). […]

As to `CCO` [Ethanol (Control), Ethanol], the “OD490 Value” (fluorescein permeability) is 0.899. Further, where the note is “n=3 corneas per sample”, the “Opacity Value” amounted to 28.7. Further, the “In Vitro Score” value (EPA: score ≧75 = Category I) is reported as 42.2.
